Experiment [1] concerns human renal cancer 786-O transplantation. The experiment in a line: Effect on tumor weight of human renal cancer 786-O transplantation nude mice (Comparative Experimental Example 1). The experiment is classed as in vivo. The note with it: QD × 14 days, sorafenib as p-toluenesulfonate, FD-1210005 free form. From the text: Comparative Experimental Example 1
The well grown 786-O solid tumor was cut into a mass of an average volume of about 1 mm^3 under aseptic conditions, and was used to inoculate nude mouse at axillary cavity of right forelimb subcutaneously via a trocar. The tumor growth state was observed regularly until the tumor grew into a volume of 250˜550 mm^3.
Animals with tumors of a too large or too small volume and an irregular shape were discarded. Tumor-bearing mice with a tumor volume of 250˜550 mm^3 in a good state were selected, 48 mice in total, and were divided into 6 groups, which were 1 solvent control group, 3 positive control groups, and 2 test sample groups. Both the positive control group and the test sample group were administered intragastrically once a day; the solvent control group was administered with 12.5% ethanol & 12.5% water solution of polyoxyethylene castor oil once a day; intragastrical volume was 10 mL/kg.
In the period of administration, tumor diameter was measured twice every week, tumor volume was calculated, and animal body weight was recorded. Animal state was observed when administered, and abnormal state was recorded.
Animal was sacrificed with CO2, and tumor was peeled off, weighed, and photographed. Animal was subjected to gross anatomy, and organs were observed by eyes to find if they were normal or not.
Observation Indexes: Tumor weight inhibiting rate (IR)=(WC−WT)/WC
Wherein WC and WT represented the average tumor weight of solvent control group and the average tumor weight of drug administration group, respectively.
Experimental data was subjected to calculation and relevant statistic processing by Microsoft Office Excel 2003 software. Unless otherwise specified, data was represented as Mean±Standard Error (Mean±S.E), and t-test is used in the comparison between two groups.

Experiment [2] relates to 786-O humanized renal clear cell xenograft. The experiment in a line: Tumor-inhibiting effect on 786-O xenograft tumor-bearing mice (Experimental Example 4). The experiment is classed as in vivo, SCID-Beige nude mice. The note with it: QD × 14 days, free form; for TGI: from tumor weight. The protocol:
786-O cells were cultured in RPMI-1640 culture medium containing inactivated 10% fetal bovine serum, 100 Um′ penicillin and 100 μg/ml streptomycin as well as 2 mM glutamine in an incubator at 37° C., 5% CO2. During cell culture, the initial concentration was 5×10^5 cells/ml, and the cells were separated into other bottles every 3 to 4 days when the cells reached a cell density of 100%. The tumor cells in logarithmic growth phase were used in tumor inoculation in vivo.
Female SCID-Beige nude mice (SPF grade) was inoculated subcutaneously at right lateral thorax with 786-O tumor cells re-suspended in PBS at 8×10^6 cells/0.1 ml. When the tumor grew into a volume of 800 mm^3, under aseptic conditions, tumor was peeled off. The well grown tumor tissues were cut into tumor mass with a size of 2×2×2 mm^3, and then were used to inoculate animal subcutaneously. When the tumor grew to a volume of about 100 mm^3, the mice were grouped and administered, 5 groups in total, 8 mice per group.
The volume of tumor was measure by using Vernier caliper twice a week. The long diameter and short diameter of tumor were measured. The volume was calculated by the formula: volume=0.5×long diameter×short diameter^2. After the final measurement, the animal was sacrificed and the tumor was peeled off and weighed. Based on the tumor weight of each group, tumor growth-inhibiting rate (TGI) was calculated. […] The data was effectiveness when TGI≧60% and p<0.05 by statistical analysis.

From patent publication US9902709B2, “Polysubstituted pyridine compound, preparation method, use and pharmaceutical composition” (PEKING UNIVERSITY FOUNDER GROUP CO., LTD., priority 2014, dated 2018) come the findings set out here.

Regarding `CNC(=O)c1cc(Oc2ccc(NC(=O)Nc3ccc(Cl)c(C(F)(F)F)c3)cc2)ccn1` [Comparative example 1, Sorafenib, reference compound], in experiment [1] (20 mg/kg po), the “Tumor weight Mean ± S.E” value is listed as 0.5239 ± 0.1038 g and the Tumor-inhibiting rate was 44.01%. In experiment [1] (60 mg/kg po), the “Tumor weight Mean ± S.E” value is recorded as 0.4407 ± 0.0581 g and the Tumor-inhibiting rate came to 52.89%.

For orientation: TGI means the reduction of tumour growth relative to the control group. Read a high TGI as much slowing of growth. Turning to `Cn1cc(-c2nccc(Oc3ccc(NC(=O)Nc4ccc(Cl)c(C(F)(F)F)c4)cc3)c2Cl)cn1` [Example 2, 1-(4-chloro-3-(trifluoromethyl)phenyl)-3-(4-(3-chloro-2-(1-methyl-pyrazol-4-yl)-pyridin-4-yl-oxy)phenyl)urea], the “Tumor weight Mean ± S.E” value was determined as 37 ± 20 mg in experiment [2] (10 mg/kg po), 32 ± 15 mg in experiment [2] (20 mg/kg po) and 16 ± 12 mg in experiment [2] (40 mg/kg po). Further, the TGI in experiment [2] (10 mg/kg po) was 82%; in experiment [2] (20 mg/kg po), 85%; in experiment [2] (40 mg/kg po) it was 92%.
